The conditions of data set [1]: Table 2, formula (II); method [a]: pH 2.7, 0.1% formic acid in water / acetonitrile gradient.
Description: Measurement of log P values was performed according EEC directive 79/831 Annex V.A8 by HPLC (High Performance Liquid Chromatography) on reversed phase columns with the following methods: ^[a]
The format of data set [2] is physicochemical.
The test system of data set [3] is Septoria tritici. The experiment in a line: In vivo preventive test on Septoria tritici (leaf spot on wheat). Conditions: 500 ppm; wheat plants sprayed 24 hours before contamination; grading 21 to 28 days after contamination vs control plants. The method in brief: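 Scipion wheat at 1-leaf stage sprayed with compound, controls receiving acetone/tween/DMSO/water vehicle; 24 h later leaves inoculated with Septoria tritici spores (500 000 spores per ml). Efficacy (%) graded versus control plants 21 to 28 days after contamination.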

Data set [4] has as its system Sphaerotheca fuliginea. The experiment in a line: In vivo preventive test on Sphaerotheca fuliginea (powdery mildew on cucurbits). The conditions noted are these: 500 ppm; gherkin plants sprayed 24 hours before contamination; grading 12 days after contamination vs control plants. The method, then:
Gherkin plants (“Vert petit de Paris” variety), sown in starter cups on a 50/50 peat soil-pozzolana substrate and grown at 24° C., are treated at the Z11 cotyledon stage by spraying with the active ingredient prepared as described above. Plants, used as controls, are treated with the mixture of acetone/tween/DMSO/water not containing the active material. After 24 hours, the plants are contaminated by spraying the cotyledons with an aqueous suspension of Sphaerotheca fuliginea spores (100 000 spores per ml). The spores are collected from infected plants. […] Grading (% of efficacy) is carried out 12 days after the contamination, in comparison with the control plants.

Data set [5] relates to Botrytis cinerea. Kind of data set: In vivo preventive test on Botrytis cinerea (grey mould). The conditions noted are these: 500 ppm; gherkin plants sprayed 24 hours before contamination; grading 4-5 days after contamination vs control plants. The method in brief: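 Gherkin plants ("Vert petit de Paris") sprayed with compound at Z11 cotyledon stage, then inoculated 24 h later with B. cinerea spores (50 000/ml) in PDB/fructose/NH4NO3/KH2PO4 nutrient solution. Incubated at 17 °C, 80% RH; % efficacy versus solvent-treated controls graded 4–5 days after contamination.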

Setting [6] is: HPLC on reversed phase columns, method [a]: pH 2.7, 0.1% formic acid in water / acetonitrile, linear gradient 10% to 95% acetonitrile.
Where [7] appears, read: HPLC on reversed phase columns, method [a]: pH 2.7, 0.1% formic acid in water and acetonitrile, linear gradient 10% to 95% acetonitrile.

Values joined by “and” are separate entries in the source; they are usually repeats but may differ in a detail not shown here. Equal entries are not always repeated. Where two headings read alike, the source gives them in different places.

As to `COC(=O)C1(C)ON=C(c2ccc3ncc(Br)cc3c2)C1C` (mixture of isomers) [II-15], in data set [1], the “Log P” value was 2.94[a].
Regarding `COC(=O)C1(C(C)O)CC(c2ccc3ncc(Br)cc3c2)=NO1` (mixture of isomers) [II-19], the “Log P” value in data set [1] was 2.18[a].
The same measure, in the same setting: the result for `CC(O)C1(C(=O)O)CC(c2ccc3ncc(Br)cc3c2)=NO1` (mixture of isomers) [II-77] reads 1.60 and 1.65; that for `CC1(C(=O)O)CC(c2cc3cc(Br)cnc3c(F)c2F)=NO1` (racemic) [II-02], 2.25[a].
On the same count and under the same terms, as for `CC1(C(=O)O)CC(c2ccc3ncc(Br)cc3c2)=NO1` (racemic) [II-03], the figure is 1.94[a]; as for `COC1(C(=O)O)CC(c2ccc3ncc(Br)cc3c2)=NO1` (racemic) [II-04], 1.73[a].
Still for that read-out and setting: the result for `COc1c(C2=NOC(C)(C(=O)O)C2)cc2cccnc2c1F` (racemic) [II-05] reads 1.39[a]; that for `O=C(O)C1(CCl)CC(c2ccc3ncc(Br)cc3c2)=NO1` (racemic) [II-06], 2.11[a]; that for `CC1(C(=O)O)CC(c2cc3cc(Br)cnc3cc2F)=NO1` (racemic) [II-07], 2.14[a].
For `O=C(O)C1(C(F)(F)F)CC(c2ccc3ncc(Br)cc3c2)=NO1` (racemic) [II-08], the “Log P” value in data set [1] is 1.85[a].
Turning to `COC1(C(=O)NC2CC2)CC(c2ccc3ncc(Br)cc3c2)=NO1` (centres unmarked) [compound 508], the “log P” value in data set [2] (method [a]: HPLC/LC-MS on reversed phase at pH 2.7, 0.1% formic acid in water / acetonitrile, gradient 10% to 95% acetonitrile) is 2.35[a]. In addition, the “% of efficacy (protection)” value in data set [3] was determined as 94%; in data set [4], 98%; in data set [5], 100%.
`C#Cc1cnc2ccc(C3=NOC(OC)(C(=O)NC(C)CC(=O)OC)C3)cc2c1` (centres unmarked) [compound 512]: the “log P” value in data set [2] (setting [6]) was 2.28[a]. The “% of efficacy (protection)” value turned out to be 97% in data set [3], 97% in data set [4] and 98% in data set [5].
`C#Cc1cnc2ccc(C3=NOC(C)(C(=O)NC(CC)COC)C3)cc2c1` (centres unmarked) [compound 524]: the “log P” value in data set [2] (setting [6]) is 2.58[a]. The results for the “% of efficacy (protection)” value in data set [3], in data set [4] and in data set [5] were 93%, 93% and 100%, respectively.
Take `C#Cc1cnc2ccc(C3=NOC(C)(C(=O)NCC)C3)cc2c1` (centres unmarked) [compound 527]: the “log P” value in data set [2] (setting [6]) was 2.12[a]. Further, the “% of efficacy (protection)” value in data set [3] is 97%; in data set [4], 94%; in data set [5], 100%.
In the same order, the values of `C#Cc1cnc2ccc(C3=NOC(C)(C(=O)NC)C3)cc2c1` (centres unmarked) [compound 531] are 1.84[a], 100%, 98% and 100%.
In the same order, the values of `CNC(=O)C1(C)CC(c2ccc3ncc(Br)cc3c2)=NO1` (centres unmarked) [compound 532] are 2.07[a], 100%, 89% and 100%.
`CCCn1cc(CNC(=O)C2(C)CC(c3cc(C)c4ncc(Br)cc4c3)=NO2)c(C)n1` (centres unmarked) [compound 534]: in data set [2] (setting [6]), the “log P” value is 3.29[a]. The results for the “% of efficacy (protection)” value in data set [3], in data set [4] and in data set [5] were 92%, 100% and 100%, respectively.
With `C#Cc1cnc2c(C)cc(C3=NOC(C)(C(=O)NCc4cnc(C)cn4)C3)cc2c1` (centres unmarked) [compound 535], the “log P” value in data set [2] (setting [6]) is 2.50[a]. In addition, the “% of efficacy (protection)” value in data set [3], in data set [4] and in data set [5] was 100% throughout.
Take `Cc1cc(C2=NOC(C)(C(=O)NCC3COC(C)(C)O3)C2)cc2cc(Br)cnc12` (centres unmarked) [compound 538]: the “log P” value in data set [2] (setting [6]) is 3.39[a]. In addition, the “% of efficacy (protection)” value in data set [3], in data set [4] and in data set [5] was 100% in each case.
With `CC1(C)OCC(CNC(=O)C2(C)CC(c3cc(Cl)c4ncc(Br)cc4c3)=NO2)O1` (centres unmarked) [compound 540], in data set [2] (setting [6]), the “log P” value was 3.17[a]. The “% of efficacy (protection)” value is listed as 92% in data set [3], 94% in data set [4] and 100% in data set [5].
In the same order, the values of `CC(C)NC(=O)C1(C)CC(c2cc(Cl)c3ncc(Br)cc3c2)=NO1` (centres unmarked) [compound 541] are 3.29[a], 100%, 98% and 100%.
Consider `C#Cc1cnc2c(Cl)cc(C3=NOC(C)(C(=O)NC(C)C)C3)cc2c1` (centres unmarked) [compound 543], for which, in data set [2] (setting [6]), the “log P” value is 2.96[a]. Moreover, the “% of efficacy (protection)” value in data set [3], in data set [4] and in data set [5] was 100% in each case.
Consider `C#Cc1cnc2c(Cl)cc(C3=NOC(C)(C(=O)NC4CCC4)C3)cc2c1` (centres unmarked) [compound 544], for which, in data set [2] (setting [6]), the “log P” value is 3.15[a]. Further, the figures for the “% of efficacy (protection)” value in data set [3], in data set [4] and in data set [5] were 100%, 98% and 100%, respectively.
As to `C#Cc1cnc2c(Cl)cc(C3=NOC(C)(C(=O)NCc4cnc(C)cn4)C3)cc2c1` (centres unmarked) [compound 558], the “log P” value in data set [2] (setting [6]) was 2.39[a]. The results for the “% of efficacy (protection)” value in data set [3], in data set [4] and in data set [5] were 100%, 85% and 97%, respectively.
On the same counts, the results for `C#Cc1cnc2c(Cl)cc(C3=NOC(C)(C(=O)NCC4COC(C)(C)O4)C3)cc2c1` (centres unmarked) [compound 559] are 2.84[a], 100%, 85% and 95%.
In the same order, the values of `COC1(C(=O)NCC2COC(C)(C)O2)CC(c2cc(Cl)c3ncc(Br)cc3c2)=NO1` (centres unmarked) [compound 568] are 3.11[a], 100%, 94% and 99%.
On the same counts, the results for `COC1(C(=O)NC(C)C)CC(c2cc(Cl)c3ncc(Br)cc3c2)=NO1` (centres unmarked) [compound 569] are 3.15[a], 100%, 100% and 100%.
Consider `CCCn1cc(CNC(=O)C2(OC)CC(c3cc(C)c4ncc(Br)cc4c3)=NO2)c(C)n1` (centres unmarked) [compound 595], for which the “log P” value in data set [2] (setting [6]) was 3.27[a]. Moreover, the “% of efficacy (protection)” value in data set [3], in data set [4] and in data set [5] was 100% throughout.
With `COC1(C(=O)NCc2cnc(C)cn2)CC(c2cc(C)c3ncc(Br)cc3c2)=NO1` (centres unmarked) [compound 596], the “log P” value in data set [2] (setting [6]) is 2.78[a]. The entries for the “% of efficacy (protection)” value in data set [3], in data set [4] and in data set [5] were 100%, 83% and 99%, respectively.
On the same counts, the results for `C#Cc1cnc2ccc(C3=NOC(C(=O)NCc4cn(CC)nc4C)(C(F)F)C3)cc2c1` (centres unmarked) [compound 613] are 2.39[a], 79%, 100% and 100%.
On the same counts, the results for `C#Cc1cnc2ccc(C3=NOC(C(=O)NCC4COC(C)(C)O4)(C(F)F)C3)cc2c1` (centres unmarked) [compound 614] are 2.64[a], 97%, 92% and 100%.
Take `CCn1cc(CNC(=O)C2(C(F)F)CC(c3ccc4ncc(Br)cc4c3)=NO2)c(C)n1` (centres unmarked) [compound 621]: the “log P” value in data set [2] (setting [6]) was 2.64[a]. The “% of efficacy (protection)” value was 97% in data set [3], 97% in data set [4] and 83% in data set [5].
For `C#Cc1cnc2ccc(C3=NOC(C=C)(C(=O)NC(C)C)C3)cc2c1` (centres unmarked) [compound 727], the “log P” value in data set [2] (setting [7]) is 2.73[a]. For the same molecule, the “% of efficacy (protection)” value in data set [3] was 100%; in data set [4], 98%; in data set [5], 98%.
As for `C=CC1(C(=O)NCC2COC(C)(C)O2)CC(c2ccc3ncc(I)cc3c2)=NO1` (centres unmarked) [compound 729], in data set [2] (setting [7]), the “log P” value was 3.11[a]. Also, the results for the “% of efficacy (protection)” value in data set [3], in data set [4] and in data set [5] were 100%, 100% and 97%, respectively.
Consider `C=CC1(C(=O)NC(C)C)CC(c2ccc3ncc(Br)cc3c2)=NO1` (centres unmarked) [compound 734], for which the “log P” value in data set [2] (setting [7]) is 3.08[a]. Further, the “% of efficacy (protection)” value in data set [3] is on record as 100%; in data set [4] it was 98%; in data set [5], 95%.

In general, Log P refers to the decadic logarithm of the partition coefficient of the neutral form, usually between octanol and water. A high value points to higher lipophilicity.

Values taken from patent US9510598B2, “Nitrogen-containing heterocyclic compounds for plant disease control” (BAYER CROPSCIENCE AG, priority 2012, dated 2016).
